Values quoted from earlier work in paper PMC8497432 (ChemMedChem, 2021).

Settings: ref 6f

cell permeability: approximately 5%
Substance: UNC3866
